Read-outs that look alike come from different tables or passages of the source.
What was measured:
[1] = test system: Pyrenophora teres; assay: Synergistic mixtures, microtiter test, net blotch pathogen Pyrenophora teres (Use Example 29); assay type: cell-based; settings: single compound
[2] = test system: Septoria glycines; assay: Microtiter test, Septoria glycines (Use Example 7); assay type: cell-based; settings: 125 ppm; control =100%, day 7
[3] = test system: Thielaviopsis basicola; assay: Synergistic mixtures, microtiter test, Thielaviopsis basicola (Use Example 31); assay type: cell-based; settings: single compound
[4] = test system: Gaeumannomyces graminis; assay: Synergistic mixtures, microtiter test, Gaeumannomyces graminis (Use Example 30); assay type: cell-based; settings: single compound
[5] = test system: Alternaria solani; assay: Synergistic mixtures, microtiter test, early blight pathogen Alternaria solani (Use Example 24); assay type: cell-based; settings: single compound, 0.063 ppm
[6] = test system: Fusarium culmorum; assay: Synergistic mixtures, microtiter test, Fusarium culmorum (Use Example 27); assay type: cell-based; settings: single compound, 16 ppm
[7] = test system: Septoria tritici; assay: Synergistic mixtures, microtiter test, leaf blotch pathogen Septoria tritici (Use Example 26); assay type: cell-based; settings: single compound, 4 ppm
[8] = test system: Colletotrichum truncatum; assay: Synergistic mixtures, microtiter test, Colletotrichum truncatum (Use Example 28); assay type: cell-based; settings: single compound, 16 ppm
[9] = test system: Puccinia recondita; assay: Synergistic mixtures, greenhouse, preventative control of brown rust on wheat caused by Puccinia recondita (Use Example 34); assay type: in vivo; settings: single compound, untreated control 90% disease
Description: These percentages were converted into efficacies. An efficacy of 0 means that the growth level of the pathogens corresponds to that of the untreated control; an efficacy of 100 means that the pathogens were not growing.
The expected efficacies of active compound mixtures were determined using Colby's formula [R. S. Colby, Calculating synergistic and antagonistic responses of herbicide combinations, Weeds 15, 20-22 (1967)] and compared with the observed efficacies. E=x+y−x·y/100 Colby's formula • E expected efficacy, expressed in % of the untreated control, when using the mixture of the compounds A and B at the concentration a and b • x efficacy, expressed in % of the untreated control, when using compound A at a concentration of a • y efficacy, expressed in % of the untreated control, when using compound B at a concentration of b A) Microtiter Tests
The spray solutions were prepared in several steps:
The stock solution were prepared as follows: a mixture of acetone and/or dimethylsulfoxide and the wetting agent/emulsifier Wettol, which is based on ethoxylated alkylphenoles, in a relation (volume) solvent-emulsifier of 99 to 1 was added to 25 mg of the compound to give a total of 10 ml. Water was then added to total volume of 100 ml.
This stock solution was diluted with the described solvent-emulsifier-water mixture to the given concentration. The compounds pyraclostrobin, boscalid and epoxiconazole were used as commercial finished formulations and diluted with water to the stated concentration of the active compound.
The first two developed leaves of pot-grown wheat seedling were sprayed to run-off with an aqueous suspension, containing the concentration of active ingredient or their mixture as described below. The next day the plants were inoculated with spores of Puccinia recondita. To ensure the success the artificial inoculation, the plants were transferred to a humid chamber without light and a relative humidity of 95 to 99% and at temperatures between 20 and 24° C. for 24 h. Then, the plants were cultivated for 6 days in a greenhouse chamber at 20 to 24° C. and a relative humidity between 65 and 70%. The extent of fungal attack on the leaves was visually assessed as % diseased leaf area.

[10] = test system: Fusarium oxysporum; settings: single compound, 16 ppm
[11] = test system: Verticillium dahliae; settings: single compound, 4 ppm
[12] = test system: Pyricularia oryzae; assay type: cell-based; settings: single compound

| SMILES | Observed efficacy (%) ([1]; 0.25 ppm) | Observed efficacy (%) ([1]; 1 ppm) | relative growth of the pathogen [2] | Observed efficacy (%) ([3]; 4 ppm) | Observed efficacy (%) ([3]; 16 ppm) | Observed efficacy (%) ([4]; 0.063 ppm) | Observed efficacy (%) [5] | Observed efficacy (%) [6] | Observed efficacy (%) [7] | Observed efficacy (%) [8] | Observed efficacy (%) ([3]; 1 ppm) | Observed efficacy (%) ([4]; 0.016 ppm) | Observed efficacy (%) ([9]; 4 ppm) | Observed efficacy (%) ([9]; 16 ppm) | Observed efficacy (%) [10] | Observed efficacy (%) [11] | Observed efficacy (%) ([12]; 0.063 ppm) | Observed efficacy (%) ([12]; 0.25 ppm) |
| --- | --- | --- | --- | --- | --- | --- | --- | --- | --- | --- | --- | --- | --- | --- | --- | --- | --- | --- |
| COc1cnccc1CNS(=O)(=O)c1ccc(Oc2ccccn2)cc1 [Example 8] | 0% | 9% | at most 25% | 11% | 6% | 0% | 3% | 0% | – | – | – | – | – | – | – | – | – | – |
| Cc1nccc(CNS(=O)(=O)c2ccc(Oc3ncc(C(F)(F)F)cc3Cl)cc2)c1C [Example 27] | – | 31% | – | 21% | – | – | – | 0% | 47% | 45% | 1% | 58% | 0% | 22% | 13% | 56% | 65% | 65% |
